From US7892755B2, “Screening method” (Takeda Pharmaceutical Company Limited, priority 2004, dated 2011)

Key:
GPR35 = GPR35 (Homo sapiens, UniProt Q9HC97, S294R); assay: MAPK phosphorylation (western blot, phospho-p44/42 MAP kinase) in human GPR35-expressed CHO cells; type: cell-based; parameters: The resulting fragment (ca. 1 kb) was introduced into vector pAKKO-111; expressed in transfected cells; conditions: stimulation with 1-5 μM, 5 minutes
Description: The human GPR35-expressed CHO cells prepared in REFERENCE EXAMPLE 1 were incubated for 48 hours in a 12-well plate at 5×10^4 cells/well. MEMα (containing no nucleic acid) supplemented with 10% dialyzed FBS was used as a medium. After the medium was removed by suction, the cells were washed with 1 ml (×2) of serum-free medium and 500 μl of the serum-free medium was added thereto, followed by incubation at 37° C. for 16 hours. DNQX or NBQX was added to the cells at its optimum concentration, followed by incubation at 37° C. for 5 minutes. Immediately after the medium was removed by suction, 50 μl of Blue Loading Buffer (BioLabs) was added, the cells were lysed and taken up by pipetting. The cell lysate was destructed using a sonicator (Sono Cleaner; KAIJO DENKI) and then heat-treated at 95° C. for 5 minutes. Centrifugation (15,000 rpm, 4° C., 5 minutes) was made and the supernatant was used as a final sample.
After 10 μl of the sample was electrophoresed on 10% SDS-PAGE, the sample was transferred to a PVDF membrane by western blotting. The membrane was immersed in Block Ace (manufactured by Dainippon Pharmaceutical Co., Ltd.) and then shaken for an hour at room temperature. […] The membrane was applied to a fluorescence detector (LAS-1000; FUJI FILM) in accordance with the protocol of ECLplus Western Blotting System (Amersham Biosciences). […]

human TGR23 = target: T1, human TGR23 (Homo sapiens, UniProt Q6W5P4); assay: MAPK phosphorylation in control cells (human TGR23-expressed CHO cells); type: cell-based
T1 construct: expressed in transfected cells; host or cells: CHO cells
T1 sequence (Q6W5P4 1-371): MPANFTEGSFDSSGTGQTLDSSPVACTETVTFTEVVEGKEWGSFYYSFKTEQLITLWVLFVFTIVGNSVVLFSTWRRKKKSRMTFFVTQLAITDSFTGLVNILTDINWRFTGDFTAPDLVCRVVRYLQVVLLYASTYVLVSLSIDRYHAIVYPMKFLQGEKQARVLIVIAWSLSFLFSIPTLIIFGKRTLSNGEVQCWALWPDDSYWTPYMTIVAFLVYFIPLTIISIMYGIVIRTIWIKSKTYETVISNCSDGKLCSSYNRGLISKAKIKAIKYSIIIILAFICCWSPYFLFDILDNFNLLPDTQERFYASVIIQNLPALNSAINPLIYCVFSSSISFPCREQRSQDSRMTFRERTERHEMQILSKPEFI

Sequence of GPR35 (Q9HC97 whole entry S294R, the tested form may be a part): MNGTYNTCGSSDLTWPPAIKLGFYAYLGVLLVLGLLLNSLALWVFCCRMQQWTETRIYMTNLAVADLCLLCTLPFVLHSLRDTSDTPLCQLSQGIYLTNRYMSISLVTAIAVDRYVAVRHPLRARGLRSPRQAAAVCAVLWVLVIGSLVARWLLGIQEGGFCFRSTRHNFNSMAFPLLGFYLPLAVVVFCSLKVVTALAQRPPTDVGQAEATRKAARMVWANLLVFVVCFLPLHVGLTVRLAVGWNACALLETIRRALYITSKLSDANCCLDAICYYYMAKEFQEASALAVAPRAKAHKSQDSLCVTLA

| SMILES | level of phosphorylated MAP-kinase (GPR35) | level of phosphorylated MAP-kinase in control cells (human TGR23) |
| --- | --- | --- |
| O=C1N=c2cc([N+](=O)[O-])c([N+](=O)[O-])cc2=NC1=O [DNQX, 6,7-dinitroquinoxaline-2,3-dione] | enhanced | any enhanced level of phosphorylation was not observed |
| NS(=O)(=O)c1cccc2c3c(cc([N+](=O)[O-])c12)=NC(=O)C(=O)N=3 [NBQX, 6-nitro-7-sulfamoylbenzo[f]quinoxaline-2,3-dione] | enhanced | any enhanced level of phosphorylation was not observed |
